Data: patent US20090163451A1, “METHODS FOR TREATING VISCERAL PAIN” (priority 2007, published 2009)
“Also recorded” adds a separate entry of the source.

Experiments:
[1] = tested on: rats with experimental pancreatitis (DBTC), referred abdominal hypersensitivity; assay: experimental pancreatitis model (IV DBTC): referred abdominal hypersensitivity, withdrawals to von Frey filament; format: in vivo, Sprague Dawley rats
Protocol: (§1) Adult male Sprague Dawley rats (Harlan, Indianapolis, Ind.), weighing 150-200 g, were maintained in a climate-controlled room with ad lib food and water on a 12 hour/12 hour light/dark cycle (lights on at 07:00 hours). All procedures followed the policies of the International Association for the Study of Pain and the NIH guidelines for the handling and use of laboratory animals. Studies were approved by the University of Arizona IACUC.
(§2) Dibutyltin dichloride (DBTC) was obtained from Sigma-Aldrich (Milwaukee, Wis.) and dissolved in 100% ethanol to a concentration of 8 mg/kg (Sparmann et al., Gastroenterology. 112:1664-1672 (1997))). Sumatriptan succinate was obtained from Toronto Research Chemicals (ON, Canada) and dissolved in saline to 1, 3, and 10 μg for RVM microinjections and 100, 200, and 300 μg/kg for systemic injections (Kayser et al., Br J Pharmacol. 137:1287-1297 (2002)). The 5HT1B antagonist isamoltane and the 5HT1D antagonist BRL15722 were obtained from Tocris (Elllisville, Mo.). Isamoltane was dissolved in saline to a concentration of 3 μg for RVM microinjection and to a concentration of 4 mg/kg (Ottani et al., Eur J Pharmacol. 497:181-186 (2004)) for system application. BRL15722 was dissolved in 10% DMSO to a concentration of 3 μg for RVM microinjection and to a concentration of 0.3 mg/kg (Ottani et al., Eur J Pharmacol. 497:181-186 (2004)) for systemic application.
For the experiments involving microinjection of drugs into the RVM, rats underwent surgeries to implant RVM cannulae. After five days of recovery, rats received either intravenous injection of DBTC to induce pancreatitis, or intracolonic injection of sodium butyrate to induce colonic hypersensitivity. Animals were monitored for development of visceral hypersensitivity on the subsequent days. On day six after either induction of pancreatitis or colonic hypersensitivity, animals underwent baseline behavioral measurements. […] For experiments investigating the effects of serotonin antagonists, the drugs were microinjected concurrently with injection of sumatriptan and animals were monitored for the subsequent two h. Separate groups of animals were microinjected with the antagonists alone to control for possible effects of the drugs by themselves.
For the experiments involving systemic drug administration, rats received intravenous injection of DBTC to induce pancreatitis or intracolonic injection of sodium butyrate to induce colonic hypersensitivity. On day six after either induction of pancreatitis of colonic hypersensitivity, animals underwent baseline behavioral measurements. […] Separate groups of animals were injected with the antagonists alone. Additionally, separate groups of animals were injected with sumatriptan systemically and microinjected with the antagonists in the RVM to determine if the RVM is a site of action for systemically applied sumatriptan. The microinjection of antagonists into the RVM was done immediately following the systemic injection of sumatriptan. All animals were tested for behavioral signs of hypersensitivity every 20 min for two h after the end of the injections.
Pancreatitis was produced by a tail vein injection of dibutyltin dichloride (DBTC, Aldrich, Milwaukee, Wis., 0.25 cc) dissolved in 100% ethanol at a dose of 8 mg/kg under isofluorane anesthesia (2-3 liters/min, 4.0%/vol until anesthetized, then 2.5%/vol throughout the procedure; Vera-Portocarrero et al., Gastroenterology. 130:2155-2164 (2006)). Control animals were injected with the vehicle solution only (100% ethanol, 0.25 mL).
Referred abdominal hypersensitivity in the pancreatitis model was quantified by measuring the number of withdrawal events evoked by application of a calibrated von Frey filament (determined by either abdominal withdrawal, licking of the abdominal area, or whole body withdrawal). Rats were placed inside Plexiglas boxes on an elevated fine fiberglass screen mesh and acclimated for 30 minutes before testing. […]

β-2 adrenergic receptors = β-2 adrenergic receptors (Homo sapiens, UniProt P07550); details: reported; cited from earlier work
Sequence of β-2 adrenergic receptors (P07550 whole entry): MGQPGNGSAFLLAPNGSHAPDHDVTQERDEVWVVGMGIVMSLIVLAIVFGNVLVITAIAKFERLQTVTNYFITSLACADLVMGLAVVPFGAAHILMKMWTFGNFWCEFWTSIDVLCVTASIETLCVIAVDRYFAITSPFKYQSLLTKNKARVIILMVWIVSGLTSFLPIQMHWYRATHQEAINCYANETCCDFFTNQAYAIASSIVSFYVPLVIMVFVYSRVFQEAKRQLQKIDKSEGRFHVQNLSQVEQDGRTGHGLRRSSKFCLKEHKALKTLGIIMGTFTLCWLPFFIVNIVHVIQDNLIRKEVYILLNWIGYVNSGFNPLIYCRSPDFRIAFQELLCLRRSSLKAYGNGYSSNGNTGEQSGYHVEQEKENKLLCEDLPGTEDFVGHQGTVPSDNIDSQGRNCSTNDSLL

[2] = tested on: rats with experimental colonic hypersensitivity (butyrate), referred lumbar hypersensitivity; assay: colonic hypersensitivity model (intracolonic sodium butyrate): referred lumbar hypersensitivity, von Frey mechanical threshold; format: in vivo, Sprague Dawley rats; details: for behavior of rats previously injected with intracolonic vehicle: control rats
Protocol: as §1, §2
For the experiments involving microinjection of drugs into the RVM, rats underwent surgeries to implant RVM cannulae. After five days of recovery, rats received either intravenous injection of DBTC to induce pancreatitis, or intracolonic injection of sodium butyrate to induce colonic hypersensitivity. Animals were monitored for development of visceral hypersensitivity on the subsequent days. On day six after either induction of pancreatitis or colonic hypersensitivity, animals underwent baseline behavioral measurements. Sumatriptan was microinjected into the RVM at different doses (separate groups of rats for each dose) and animals were monitored behaviorally for two h after sumatriptan application in the RVM. For experiments investigating the effects of serotonin antagonists, the drugs were microinjected concurrently with injection of sumatriptan and animals were monitored for the subsequent two h. Separate groups of animals were microinjected with the antagonists alone to control for possible effects of the drugs by themselves.
For the experiments involving systemic drug administration, rats received intravenous injection of DBTC to induce pancreatitis or intracolonic injection of sodium butyrate to induce colonic hypersensitivity. On day six after either induction of pancreatitis of colonic hypersensitivity, animals underwent baseline behavioral measurements. Sumatriptan was injected intraperitoneally at different doses (separate groups of rats for each dose) and the animals were monitored behaviorally every 20 min for two h after injection. For experiments investigating the effects of serotonin antagonists, the drugs were injected intraperitoneally immediately following the injection of sumatriptan (separate groups for each respective antagonist). Separate groups of animals were injected with the antagonists alone. Additionally, separate groups of animals were injected with sumatriptan systemically and microinjected with the antagonists in the RVM to determine if the RVM is a site of action for systemically applied sumatriptan. The microinjection of antagonists into the RVM was done immediately following the systemic injection of sumatriptan. All animals were tested for behavioral signs of hypersensitivity every 20 min for two h after the end of the injections.
Colonic hypersensitivity was induced by enemas of a sodium butyrate solution ([…]) twice daily for 3 days (Bourdu et al., Gastroenterology. 128:1996-2008 (2005)). […]

[3] = tested on: rats with experimental colonic hypersensitivity (butyrate), referred lumbar hypersensitivity; assay: as above; format: in vivo, Sprague Dawley rats; details: 10 μg IV, up to 120 minutes postinjection, data not shown
[4] = tested on: capsaicin-induced hyperemia in the sciatic nerve; details: Zochodne and Ho; cited from earlier work
[5] = tested on: acetic acid-induced abdominal writhing in mice; details: mice (Ghelardini et al.; Jain et al.); cited from earlier work
[6] = tested on: evoked release of calcitonin gene-related peptide from the rat isolated spinal cord; details: rat isolated spinal cord (Arvieu et al.); cited from earlier work
[7] = tested on: thermal hypersensitivity induced by intraplantar injection of carrageenan; details: injected systemically at similar doses used in the present study (Bingham et al.); cited from earlier work
[8] = RVM microinjection, butyrate rats

In the case of CC(C)NCC(O)COc1ccccc1-n1cccc1 (stereo not drawn) [isamoltane], the “effect of concurrent RVM antagonist on the effect of RVM sumatriptan” value ([1]; sumatriptan 10 μg RVM, antagonist 3 μg RVM, DBTC rats) is reported as “blocked the effect of sumatriptan”, the “effect of RVM antagonist on the effect of systemic sumatriptan” value ([1]; sumatriptan 300 μg/kg IP, antagonist 3 μg RVM, DBTC rats) is reported as “failed to antagonize the effects of systemic sumatriptan; also recorded: did not modify the effect of systemic sumatriptan” and the “effect of concurrent systemic (IP) antagonist on the effect of systemic sumatriptan” value ([1]; sumatriptan 300 μg/kg IP, isamoltane 4 mg/kg IP or BRL15722 0.3 mg/kg IP, DBTC rats) is reported as “reduced the effects of sumatriptan; also recorded: blocked the effects of sumatriptan”. The “activity at β-2 adrenergic receptors” value (β-2 adrenergic receptors) was “reported to have activity at β-2 adrenergic receptors”, the “effect of concurrent RVM antagonist on the effect of RVM sumatriptan” value ([2]; sumatriptan 10 μg RVM, antagonist 3 μg RVM, butyrate rats) was “blocked the effects of sumatriptan; also recorded: blocked the effect of RVM sumatriptan” and the “effect of RVM antagonist on the effect of systemic sumatriptan” value ([2]; sumatriptan 300 μg/kg IP, antagonist 3 μg RVM, butyrate rats) was “failed to antagonize the effects of systemic sumatriptan; also recorded: did not modify the effect of systemic sumatriptan”. The “effect of concurrent systemic (IP) antagonist on the effect of systemic sumatriptan” value ([2]; sumatriptan 300 μg/kg IP, isamoltane 4 mg/kg IP or BRL15722 0.3 mg/kg IP, butyrate rats) was “reduced the effects of sumatriptan; also recorded: blocked the effect of systemic sumatriptan”.
In the case of CNS(=O)(=O)Cc1ccc2[nH]cc(CCN(C)C)c2c1 [sumatriptan], the “reduced lumbar mechanical threshold after IV sumatriptan” value [3] is listed as “did not reverse the reduction in threshold”, the “capsaicin-induced hyperemia in the sciatic nerve” value [4] is listed as “inhibits capsaicin-induced hyperemia” and the “frequency of abdominal withdrawals after IV sumatriptan” value ([1]; 10 μg IV, DBTC rats, up to 120 minutes postinjection, data not shown) is listed as “not altered”. For the same compound, the “frequency of withdrawals in DBTC-injected rats” value ([1]; IP sumatriptan 100, 200, 300 μg/kg, day 6 after DBTC) was “reduced abdominal withdrawals in pancreatic rats in a dose-dependent manner; also recorded: reduced the frequency of withdrawals in DBTC-injected rats in a time- and dose-dependent manner”, the “responses to abdominal stimulation in vehicle-injected control rats” value ([1]; IP sumatriptan, rats without pancreatitis) was “did not alter responses to abdominal stimulation” and the “time for which systemic sumatriptan was active postinjection” value ([1]; IP, DBTC rats) was “up to 100 minutes”. For the same compound, the “time of peak effect” value ([1]; IP, DBTC rats) was 40 min, the “time point at which the effect dissipated” value ([1]; IP, DBTC rats) was 120 min and the “time to attenuation of withdrawals after administration” value ([1]; IP, DBTC rats) was ≤ 20 min. For the same compound, the “A50 dose (and 95% confidence interval) for IP sumatriptan” value ([1]; IP, day 6 after IV DBTC, frequency of abdominal withdrawals, A50 = dose producing a 50% response) was 172.4 (124.5-386.7) μg/kg, the “frequency of withdrawals after RVM administration” value ([1]; RVM microinjection 1, 3, 10 μg, DBTC rats) was “reduced the number of withdrawals in a dose-dependent manner; also recorded: attenuated the increased frequency of withdrawals” and the “time by which the effects of RVM sumatriptan dissipated” value ([1]; RVM microinjection, DBTC rats) was ≤ 100 min. For the same compound, the “time for which the effects of RVM sumatriptan endured” value ([1]; RVM microinjection, DBTC rats) was “approximately 60 minutes”, the “time of peak effect” value ([1]; RVM microinjection, DBTC rats) was 40 min and the “time to attenuation of withdrawals after administration” value ([1]; RVM microinjection, DBTC rats) was ≤ 20 min. The “responses to abdominal stimulation in vehicle-injected rats” value ([1]; RVM microinjection, rats without pancreatitis) was “did not alter responses to abdominal stimulation”, the “A50 dose (and 95% CI) for RVM sumatriptan” value ([1]; microinjection into the RVM, DBTC rats, frequency of withdrawals) was 4.3 (3.1-16.2) μg and the “frequency of withdrawals, single RVM dose” value ([1]; sumatriptan 10 μg into the RVM, DBTC rats, v. RVM saline) was “attenuated the frequency of withdrawals; also recorded: reduced the frequency of withdrawals”. The “frequency of withdrawals, single dose of systemic sumatriptan” value ([1]; sumatriptan 300 μg/kg IP, DBTC rats, v. saline) was “attenuated the frequency of withdrawals; also recorded: reduced the frequency of withdrawals”, the “mechanical threshold of rats injected with sodium butyrate” value ([2]; IP sumatriptan 100, 200, 300 μg/kg) was “restored tactile thresholds of butyrate-treated rats in a dose dependent manner; also recorded: increased the mechanical threshold of rats injected with sodium butyrate in a time- and dose-dependent manner” and the “behavior of rats previously injected with intracolonic vehicle” value ([2]; IP sumatriptan) was “did not modify the behavior”. For the same compound, the “time for which systemic sumatriptan was active postinjection” value ([2]; IP, butyrate rats) was 60 min, the “time of peak effect” value ([2]; IP, butyrate rats) was 40 min and the “time point by which the effect dissipated” value ([2]; IP, butyrate rats) was “up to 100 minute”. The “time to reversal of reduced mechanical threshold after administration” value ([2]; IP, butyrate rats) was ≤ 20 min, the “A50 (and 95% CI) dose for IP sumatriptan” value ([2]; IP, butyrate rats, lumbar mechanical threshold) was 232.6 (182.2-322.8) μg/kg and the “lumbar hypersensitivity / lumbar dermatome mechanical threshold after RVM administration” value ([2]; RVM microinjection 1, 3, 10 μg, butyrate rats) was “restored tactile thresholds of butyrate-treated rats in a dose dependent manner; also recorded: time- and dose-dependent attenuation of lumbar hypersensitivity”. For the same compound, the “time by which the effects of RVM sumatriptan dissipated” value [2, 8] was ≤ 100 min, the “time for which the effects of RVM sumatriptan endured” value [2, 8] was “approximately 60 minutes” and the “time of peak effect” value [2, 8] was 40 min. The “time to reversal of reduced mechanical threshold after administration” value [2, 8] was ≤ 20 min, the “behavior of rats previously injected with intracolonic vehicle” value ([2]; RVM microinjection) was “did not modify the behavior” and the “A50 (and 95% CI) dose for RVM sumatriptan” value ([2]; microinjection into the RVM, butyrate rats, lumbar mechanical threshold) was 3.2 (2.0-12.5) μg. For the same compound, the “mechanical threshold, single RVM dose” value ([2]; sumatriptan 10 μg into the RVM, butyrate rats, v. RVM saline) was “increased the mechanical threshold”, the “mechanical threshold, single dose of systemic sumatriptan” value ([2]; sumatriptan 300 μg/kg IP, butyrate rats, v. saline) was “increased the mechanical threshold” and the “antinociceptive efficacy in acetic acid-induced abdominal writhing” value [5] was “has antinociceptive efficacy”. The “evoked release of calcitonin gene-related peptide” value [6] was “inhibits” and the “thermal hypersensitivity induced by intraplantar carrageenan” value [7] was “attenuated”.
